What follows are molecules tested against T1, alpha4-beta7 (Homo sapiens, UniProt P13612+P26010) (assay: Alpha4-Beta7 Assay (MadCAM/RPMI 8866 cell adhesion)). Details: calcein labeled RPMI 8866 cells adhering to immobilized MadCAM.
T1 construct: Sufficient RPMI 8866 cells were removed from stock for assay; endogenous in cells; host or cells: RPMI 8866 cells
T1 sequence (P13612 34-1032): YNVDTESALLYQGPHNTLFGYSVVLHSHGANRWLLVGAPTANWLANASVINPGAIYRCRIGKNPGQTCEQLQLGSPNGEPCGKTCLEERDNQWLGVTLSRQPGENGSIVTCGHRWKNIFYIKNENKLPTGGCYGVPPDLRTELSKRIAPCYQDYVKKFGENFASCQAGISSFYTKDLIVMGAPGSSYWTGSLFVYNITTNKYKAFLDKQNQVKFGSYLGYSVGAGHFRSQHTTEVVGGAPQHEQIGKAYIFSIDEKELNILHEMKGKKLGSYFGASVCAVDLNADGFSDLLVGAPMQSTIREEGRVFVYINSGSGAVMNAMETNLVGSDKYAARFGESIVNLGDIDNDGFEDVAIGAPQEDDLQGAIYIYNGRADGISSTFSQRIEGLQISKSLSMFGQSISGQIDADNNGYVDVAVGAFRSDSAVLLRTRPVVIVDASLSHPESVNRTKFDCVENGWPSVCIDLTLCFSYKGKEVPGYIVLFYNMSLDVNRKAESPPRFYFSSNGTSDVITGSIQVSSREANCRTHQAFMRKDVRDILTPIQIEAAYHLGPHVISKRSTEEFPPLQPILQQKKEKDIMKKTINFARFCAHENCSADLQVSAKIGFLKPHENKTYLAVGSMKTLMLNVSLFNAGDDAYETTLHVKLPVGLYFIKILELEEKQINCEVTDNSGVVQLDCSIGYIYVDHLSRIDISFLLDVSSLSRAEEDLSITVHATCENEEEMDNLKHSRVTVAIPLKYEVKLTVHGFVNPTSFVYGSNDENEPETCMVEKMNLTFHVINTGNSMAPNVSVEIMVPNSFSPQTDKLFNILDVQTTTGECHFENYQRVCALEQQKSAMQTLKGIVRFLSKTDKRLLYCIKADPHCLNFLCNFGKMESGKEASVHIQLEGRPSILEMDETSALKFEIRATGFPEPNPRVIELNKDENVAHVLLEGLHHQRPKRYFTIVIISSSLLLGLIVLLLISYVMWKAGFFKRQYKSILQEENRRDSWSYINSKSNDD
T1 sequence (P26010 20-798): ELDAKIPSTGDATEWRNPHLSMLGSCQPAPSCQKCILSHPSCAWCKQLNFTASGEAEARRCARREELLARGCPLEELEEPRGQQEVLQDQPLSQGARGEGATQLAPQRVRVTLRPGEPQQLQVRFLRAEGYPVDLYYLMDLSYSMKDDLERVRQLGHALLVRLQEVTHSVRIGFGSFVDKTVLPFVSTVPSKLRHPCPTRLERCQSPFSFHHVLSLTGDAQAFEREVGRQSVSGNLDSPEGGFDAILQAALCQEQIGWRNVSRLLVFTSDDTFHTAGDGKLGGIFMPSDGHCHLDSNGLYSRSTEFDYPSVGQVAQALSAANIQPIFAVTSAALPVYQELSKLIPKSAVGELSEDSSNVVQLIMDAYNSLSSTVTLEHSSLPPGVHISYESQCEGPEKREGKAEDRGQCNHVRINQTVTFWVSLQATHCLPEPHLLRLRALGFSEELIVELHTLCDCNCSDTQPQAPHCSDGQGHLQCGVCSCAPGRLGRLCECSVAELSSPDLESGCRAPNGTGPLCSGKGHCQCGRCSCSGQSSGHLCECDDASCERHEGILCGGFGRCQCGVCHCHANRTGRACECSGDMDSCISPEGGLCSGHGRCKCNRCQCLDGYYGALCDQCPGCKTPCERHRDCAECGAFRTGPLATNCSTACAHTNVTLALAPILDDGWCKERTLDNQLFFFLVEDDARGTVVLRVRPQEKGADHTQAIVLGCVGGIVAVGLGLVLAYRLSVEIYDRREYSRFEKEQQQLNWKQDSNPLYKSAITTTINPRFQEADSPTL
Assay type: cell-based
Description: Alpha4-Beta7 Assay Protocol
Two weeks to one day prior to the assay, Nunc high-binding F96 Maxisorp immuno plates, #442404 or #439454, were coated with 25 ng/well (0.25 μg/ml) MadCAM in a volume of 100 μl/well. The plates were covered with sealer and wrapped in saran wrap followed by incubation in the refrigerator for at least 24 hours. The coating buffer employed was: 10 mM carbonate/bicarbonate buffer made up from: 0.8 g/L sodium carbonate and 1.55 g/L sodium bicarbonate adjusted to pH 9.6 with 1 N HCl. Assay buffers consisted of the following:
Plates were washed 2× with wash buffer and then blocked at room temperature for at least 1 hour with Blocking Buffer. Sealed plates were sometimes blocked overnight in the refrigerator. Plates were then washed with PBS and hand blotted dry. Remaining liquid was aspirated from the wells.
Sufficient RPMI 8866 cells were removed from stock for assay (2×10^6 cells/ml×10 ml/plate×number of plates) and placed in a centrifuge tube. The tubes were filled to volume with PBS and were spun at 200×G for 8 minutes. The buffer was poured off and the cells were resuspended to 10×10^6/ml in PBS and a stock solution of calcein in DMSO (5mg/mL) was added at 51 μl/ml of cell suspension. The suspension was incubated for 30 minutes at 37° C. in dark. The cells were then washed with PBS. The PBS was poured off and the cells resuspended in cell buffer at a concentration of 2×10^6 cells/mL for plating in the assay.
Stock solution of test compounds at 25× first dilution desired in 100% DMSO were prepared. First dilutions for the standard, as well as test compounds, were 1:25 into straight Binding Buffer, while the remaining serial dilutions were into Dilution Buffer (Binding Buffer/4% DMSO). Stock concentrations and dilutions of compounds for screening were determined by anticipated activity.
For the assay, 129 μl Binding Buffer was plated into first row of wells and 100 μl Dilution Buffer was plated into remaining wells. A 5.44 μl aliquot of each compound was pipetted into appropriate, labeled wells, in triplicate. The compounds were next diluted down the plate (34 μl+100 μl=>4-fold dilution). For controls, 100 μl of Dilution Buffer 100 μl Cell Buffer were plated into the nonspecific background wells (no cells, no compound) and 100 μl Dilution Buffer+100 μl cells were plated into the total binding wells (no compound=100% binding). Labeled cells at 2×10^6 cells/ml, 100 μl/well (=2×10^5 cells/well) were added to each well containing compound. The plates were sealed and incubated in the dark for 45 minutes at room temperature. Following incubation, unbound cells were removed by adding 150 μl PBS/well. The plates were inverted, blotted onto paper towels and washed by gently adding 200 μl PBS to wells and blotting again. Remaining buffer was carefully aspirated from the wells. A final 100 μl PBS was added to each well.
The plates were then read for fluorescence intensity on a Cytofluor 2300 (Millipore) fluorecence measurement system (excitation=485 nm, emission=530 nm). IC50s of each compound were determined by linear regression analysis.

Cc1cc(C[C@H](NC(=O)c2c(C)cccc2Cl)C(=O)O)ccc1-c1cn(C)c(=O)n(C)c1=O [Example 24, N-[(2-chloro-6-methylphenyl)carbonyl]-4-(1,3-dimethyl-2,4-dioxo-5-pyrimidinyl)-3-methyl-L-phenylalanine] and Cc1cc(C[C@H](NC(=O)c2c(Cl)cccc2Cl)C(=O)O)ccc1-c1cn(C)c(=O)n(C)c1=O [Example 25, N-[(2,6-dichlorophenyl)carbonyl]-4-(1,3-dimethyl-2,4-dioxo-5-pyrimidinyl)-3-methyl-L-phenylalanine] cannot be ordered by IC50: < 10 µM for the first, < 10 µM for the second.

Cc1cccc(Cl)c1C(=O)N[C@@H](Cc1ccc(-c2c(C)n(C)c(=O)n(C)c2=O)cc1)C(=O)O [Example 9, N-[(2-chloro-6-methylphenyl)carbonyl]-4-(1,3,6-trimethyl-2,4-dioxo-5-pyrimidinyl)-L-phenylalanine] and Cc1c(-c2ccc(C[C@H](NC(=O)c3c(Cl)cccc3Cl)C(=O)O)cc2)c(=O)n(C)c(=O)n1C [Example 6, N-[(2,6-dichlorophenyl)carbonyl]-4-(1,3,6-trimethyl-2,4-dioxo-5-pyrimidinyl)-L-phenylalanine] cannot be ordered by IC50: < 0.1 µM for the first, < 0.1 µM for the second.

CCc1cccc(C)c1C(=O)N[C@@H](Cc1ccc(-c2c(C)n(C)c(=O)n(C)c2=O)cc1)C(=O)O [Example 10, N-[(2-ethyl-6-methylphenyl)carbonyl]-4-(1,3,6-trimethyl-2,4-dioxo-5-pyrimidinyl)-L-phenylalanine] and Cc1cccc(C(C)C)c1C(=O)N[C@@H](Cc1ccc(-c2c(C)n(C)c(=O)n(C)c2=O)cc1)C(=O)O [Example 11, N-[[2-(2-methylethyl)-6-methylphenyl]carbonyl]-4-(1,3,6-trimethyl-2,4-dioxo-5-pyrimidinyl)-L-phenylalanine] cannot be ordered by IC50: < 10 µM for the first, < 5 µM for the second.

Cc1c(-c2ccc(C[C@H](NC(=O)c3c(F)cccc3F)C(=O)O)cc2)c(=O)n(C)c(=O)n1C [Example 12, N-[(2,6-difluorophenyl)carbonyl]-4-(1,3,6-trimethyl-2,4-dioxo-5-pyrimidinyl)-L-phenylalanine] and Cc1c(-c2ccc(C[C@H](NC(=O)c3c(F)cccc3C(F)(F)F)C(=O)O)cc2)c(=O)n(C)c(=O)n1C [Example 13, N-[(2-fluoro-6-(trifluoromethyl)phenyl)carbonyl]-4-(1,3,6-trimethyl-2,4-dioxo-5-pyrimidinyl)-L-phenylalanine] cannot be ordered by IC50: < 0.1 µM for the first, < 10 µM for the second.

Cc1c(-c2ccc(C[C@H](NC(=O)c3c(C(C)C)cccc3C(C)C)C(=O)O)cc2)c(=O)n(C)c(=O)n1C [Example 14, N-[[2,6-di-(2-methylethyl)phenyl]carbonyl]-4-(1,3,6-trimethyl-2,4-dioxo-5-pyrimidinyl)-L-phenylalanine] and Cn1c(C(F)(F)F)c(-c2ccc(C[C@H](NC(=O)c3c(Cl)cccc3Cl)C(=O)O)cc2)c(=O)n(C)c1=O [Example 21, N-[1-(2,6-dichlorophenyl)carbonyl]-4-(1,3-dimethyl-2,4-dioxo-6-(trifluoromethyl)-5-pyrimidinyl)-L-phenylalanine] cannot be ordered by IC50: < 5 µM for the first, < 10 µM for the second.

CCn1c(C)c(-c2ccc(C[C@H](NC(=O)c3c(Cl)cccc3Cl)C(=O)O)cc2)c(=O)n(CC)c1=O [Example 18, N-[(2,6-dichlorophenyl)carbonyl]-4-(1,3-diethyl-6-methyl-2,4-dioxo-5-pyrimidinyl)-L-phenylalanine] and CCn1c(C)c(-c2ccc(C[C@H](NC(=O)C3(CCOC)CCCC3)C(=O)O)cc2)c(=O)n(CC)c1=O [Example 20, 4-(1,3-diethyl-6-methyl-2,4-dioxo-5-pyrimidinyl)-N-[[1-(2-methoxyethyl)cyclopentyl]carbonyl]-L-phenylalanine] cannot be ordered by IC50: < 0.1 µM for the first, < 10 µM for the second.

COCCC1(C(=O)N[C@@H](Cc2ccc(-c3c(C)n(C)c(=O)n(C)c3=O)cc2)C(=O)O)CCCC1 [Example 7, N-[[1-(2-methoxyethyl)cyclopentyl]carbonyl]-4-(1,3,6-trimethyl-2,4-dioxo-5-pyrimidinyl)-L-phenylalanine] was tested, and the IC50 was < 0.1 µM.

Reference: patent publication US6380387B1, “4-Pyrimidinyl-n-acyl-l phenylalanines” (Hoffmann-La Roche Inc., priority 1999, dated 2002)
